These results are taken from patent publication US20120258938A1, “Enzymatic Production or Chemical Synthesis and Uses for 5,7-Dienes and UVB Conversion Products Thereof” (priority 2008, published 2012).

In test [1] the test system is human breast carcinoma cell line MD-MBA-231. Briefly: Proliferation of MD-MBA-231 breast carcinoma cells. The class given is cell-based. Particulars: MD-MBA-231, 48 h, [3H]-thymidine. The procedure: (§1) Cells were seeded in 96-well plate and incubated with 20-hydroxycholecalciferol in DMEM medium containing 5% FBS for 48 h (FIG. 25A) or 72 h (FIG. 25C) or for 24 h after a 12 h synchronization in serum free medium (FIG. 25D). […] was added for a final 18 h (FIGS. 25A, 25D) or 12 h (FIG. 25C) of incubation or cells were assessed with sulforhodamine assay (FIG. 25C). Data is shown as mean±SEM (n=5; FIG. 24C) or mean±SEM (n=6; FIGS. 24A, 24C, 24D) and was analyzed using GraphPrism 4.0.

In test [2] the test system is human prostate carcinoma cell line PC-3. Briefly: Proliferation of PC-3 prostate carcinoma cells. Particulars: PC-3, 72 h. The class given is cell-based. The procedure: as §1
The subject of the next test is PC-3. Briefly: Flow cytometry cell cycle and subG1, PC-3. The class given is cell-based, human. To be noted: PC-3, 24 h. The procedure: (§2) MD-MBA-231, MG-63, PC-3, and WM164 cells were seeded into Petri dishes and then incubated for 24 h with 20-hydroxycholecalciferol in DMEM medium containing 5% FBS. Then cells were fixed, DNA stained and samples read with flow cytometer as described (7). Data was analyzed with Cell Quest (BD Biosciences). Cell cycle phases were assessed in viable cell populations and subG1 contents were calculated within whole cell population.
(A flow cytometer gives signals particle by particle.)

The test system of the next test is Col1A1 mRNA. Briefly: Real time RT PCR Col1A1 mRNA, TGF-b1 stimulated skin fibroblasts. Format: cell-based. To be noted: human skin fibroblasts. How it is done:
Additional studies using human skin fibroblasts were performed employing a type I collagen specific ELISA Chondrex, and real time RT PCR to quantitate type I collagen protein and Col1A1 mRNA expression in culture of human fibroblast stimulated by TGF-b1 in the presence and absence of 17,20S(OH)2pD3 and/or 20(OH)D3. These studies confirmed that Type I collagen protein production that was induced by TGF-b1 and that Col1A1 mRNA that was induced by TGF-b1 were suppressed by these analogues (FIGS. 44A-44B).

Test [3] has as its system human radial growth phase amelanotic melanoma WM35 cells. Briefly: Viability of WM35 melanoma cells. The class given is cell-based. To be noted: WM35, 24 h. How it is done: as §1
Another test has as its system WM164. Briefly: Flow cytometry cell cycle and subG1, WM164. To be noted: WM164, 24 h. The class given is cell-based. How it is done:
as §2

The subject of test [4] is K562 human chronic myeloid leukemia cells. Briefly: Erythroid differentiation of K562 cells. Format: cell-based. Particulars: 10^-7 M, 7 days. The procedure: K562 human chronic myeloid leukemia (erythroleukemia) and MEL mouse erytholeukemia cells were cultured in RPMI 1640 containing 10% FBS and treated with the drugs at concentrations 0.1 μM. A 0.1% ethanol (EtOH) or 2% DMSO were used as negative or positive control, respectively to estimate the vehicle effect and the ability of the cells to differentiate. Media were exchanged every 72 h and drugs added every day. Growth of cultures was estimated by counting number of viable cells (trypan blue negative cells) as described previously.
To estimate erythroid differentiation (production of hemoglobin), first the number of benzidine positive cells was evaluated after 2 and 7 days in culture. Cells were centrifuged and washed four times with PBS and resuspended in 1 mL of fresh PBS. For hemoglobin determination, a benzidine staining solution was freshly prepared by mixing one part of 30% hydrogen peroxide, one part of base stock solution of 3% benzidine in 90% acetic acid, and 5 parts of water. The solution was diluted 1:10 with the cell suspension and aliquoted in 4 wells in 24-well plate (250 μl each). After 10 min of incubation at RT benzidine-positive cells were counted under the microscope with a minimum of 200 cells scored.
Second, to define spectrophotometrically relative content of hemoglobin, equal number of cells (7×106) were washed with cold PBS and lysed for 20 min in 100 μL of lysis buffer (0.2% Triton X-100 in […] potassium phosphate buffer, pH 7.8). The lysates were centrifuged for 15 min at 1500 r.p.m. and 100 μL of the supernatant was incubated with 2 mL of benzidine solution (5 mg/mL in glacial acetic acid) and 2 ml 30% H2O2 for 10 min increases in comparison with the level of hemoglobin in mock-induced K562 or MEL cells.

Consider `C=C1CC[C@H](O)C/C1=C/C=C1\CCC[C@@]2(C)[C@H]1CC[C@@H]2[C@@](C)(O)CCCC(C)C` [20(OH)D3, (5Z,7E)-9,10-secocholesta-5,7,10(19)-triene-3β,20-diol], for which the values for the EC50 in test [1] and in test [2] were 10 nM and 570 nM, respectively. Also, the “G0/G1 of viable cells” value is recorded as 24% in the test on PC-3 and 70% with WM164. Besides, the “G2/M of viable cells” value with PC-3 was determined as 0; in the test on WM164 it was 7. Also, the “S of viable cells” value in the test with PC-3 worked out at 76%; in the test with WM164 it was 24%. The “Viable Cells” value is listed as 4 in the test with PC-3 and 87 with WM164. Further, the results for the subG1 in the test with PC-3 (whole cell population) and with WM164 (whole cell population) were 96 and 13, respectively. Besides, the “TGF-b1 induced Col1A1 mRNA” value in the test with Col1A1 mRNA is “suppressed”. Further, the “concentration above which viability started declining” value in test [3] is listed as “greater than 1×10^−7 M”.
Turning to `C=C1CC[C@H](O)C/C1=C/C=C1\CCC[C@]2(C)[C@@H](C(C)=O)CC[C@@H]12` [pD3, (5Z,7E)-3β-hydroxy-9,10-secopregna-5,7,10(19)-trien-20-one], in test [4], the “differentiation of K562 cells” value is on record as “induce differentiation”.
